The source made the active and inactive calls.
Columns and labels:
[1] = target: Tyrosine 3-monooxygenase (Rattus norvegicus) (UniProt P04177); assay: Inhibition of rat tyrosine hydroxylase at 1 uM relative to control
Rattus norvegicus [2] = assay: Antiallodynic activity against von Frey hair mechanically stimulated neuropathic pain in intrathecally dosed Sprague-Dawley rat assessed as increase of response threshold per site after 20 mins; type: functional
[3] = Drug level Sprague-Dawley rat brain at 10 mg/kg, sc after 0.5 hrs; type: ADME, organism-based; design: dose 10 mg/kg, route subcutaneous; settings: read-out: Drug uptake
Rattus norvegicus [4] = assay: Antiallodynic activity against von Frey hair mechanically stimulated neuropathic pain in icv dosed Sprague-Dawley rat assessed as increase of response threshold per site after 20 mins; type: functional
[5] = target: Beta-2 adrenergic receptor (Homo sapiens) (UniProt P07550); assay: Inhibition of human beta2 adrenoceptor at 1 uM relative to control
[6] = target: Type-1 angiotensin II receptor (Homo sapiens) (UniProt P30556); assay: Inhibition of human angiotensin 2 AT1 receptor at 1 uM relative to control
Type-1 angiotensin II receptor (Homo sapiens), sequence (P30556 whole entry): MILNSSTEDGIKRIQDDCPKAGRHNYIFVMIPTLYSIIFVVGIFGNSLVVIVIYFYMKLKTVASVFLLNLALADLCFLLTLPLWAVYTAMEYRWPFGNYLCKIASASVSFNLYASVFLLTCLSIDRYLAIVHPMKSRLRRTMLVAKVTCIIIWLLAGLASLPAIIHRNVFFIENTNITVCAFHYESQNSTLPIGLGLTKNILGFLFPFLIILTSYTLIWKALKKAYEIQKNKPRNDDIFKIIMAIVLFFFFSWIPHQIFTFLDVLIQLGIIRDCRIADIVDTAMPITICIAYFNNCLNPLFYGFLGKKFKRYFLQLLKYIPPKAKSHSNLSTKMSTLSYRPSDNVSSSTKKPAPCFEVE

Rattus norvegicus [7] = assay: Toxicity in von Frey hair mechanically stimulated neuropathic pain Sprague-Dawley rat model assessed as sedation effect at up to 170 nmol/site, icv; type: organism-based; settings: in vivo, icv_or_intrathecal
[8] = target: Sodium-dependent serotonin transporter (Homo sapiens) (UniProt P31645); assay: Inhibition of human 5-HT transporter at 1 uM relative to control
Sodium-dependent serotonin transporter (Homo sapiens), sequence (P31645 whole entry, looked up): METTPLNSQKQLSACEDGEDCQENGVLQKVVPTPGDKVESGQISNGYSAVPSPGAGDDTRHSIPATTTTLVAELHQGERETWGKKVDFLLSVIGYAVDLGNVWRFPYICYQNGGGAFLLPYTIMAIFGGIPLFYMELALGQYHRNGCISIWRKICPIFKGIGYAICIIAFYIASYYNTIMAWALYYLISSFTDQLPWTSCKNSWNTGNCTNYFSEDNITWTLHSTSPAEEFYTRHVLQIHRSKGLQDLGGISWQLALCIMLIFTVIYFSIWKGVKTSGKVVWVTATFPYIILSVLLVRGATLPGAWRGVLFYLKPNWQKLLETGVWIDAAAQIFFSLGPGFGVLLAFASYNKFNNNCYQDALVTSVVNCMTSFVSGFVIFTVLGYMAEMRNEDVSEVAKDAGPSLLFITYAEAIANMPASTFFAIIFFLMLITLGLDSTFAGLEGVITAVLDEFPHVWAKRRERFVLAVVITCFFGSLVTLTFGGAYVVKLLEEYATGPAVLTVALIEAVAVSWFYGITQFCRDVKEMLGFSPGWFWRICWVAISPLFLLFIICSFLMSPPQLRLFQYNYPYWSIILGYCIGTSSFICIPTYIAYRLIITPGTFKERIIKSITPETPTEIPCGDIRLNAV

[9] = target: Beta-1 adrenergic receptor (Homo sapiens) (UniProt P08588); assay: Inhibition of human beta1 adrenoceptor at 1 uM relative to control
Beta-1 adrenergic receptor (Homo sapiens), sequence (P08588 whole entry, looked up): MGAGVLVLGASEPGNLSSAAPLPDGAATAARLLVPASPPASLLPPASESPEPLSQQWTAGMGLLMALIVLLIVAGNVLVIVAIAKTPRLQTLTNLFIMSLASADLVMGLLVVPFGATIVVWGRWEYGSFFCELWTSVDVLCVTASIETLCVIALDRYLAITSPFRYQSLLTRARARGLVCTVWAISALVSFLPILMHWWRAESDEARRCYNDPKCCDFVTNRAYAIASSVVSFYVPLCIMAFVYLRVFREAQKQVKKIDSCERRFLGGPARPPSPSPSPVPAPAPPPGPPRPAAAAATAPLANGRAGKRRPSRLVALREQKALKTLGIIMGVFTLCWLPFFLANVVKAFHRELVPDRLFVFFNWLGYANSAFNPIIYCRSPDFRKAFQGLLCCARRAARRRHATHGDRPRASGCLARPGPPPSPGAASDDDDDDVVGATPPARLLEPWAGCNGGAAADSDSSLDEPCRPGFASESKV

Rattus norvegicus [10] = assay: Antiallodynic activity against von Frey hair mechanically stimulated neuropathic pain in Sprague-Dawley rat assessed as increase of response threshold at 1 to 30 mg/kg, sc; type: functional, organism-based; settings: TDE = time-dependent effect
Rattus norvegicus [11] = species: Rattus norvegicus; assay: Inhibition of rat glutamate receptor at 1 uM relative to control
[12] = target: Adrenergic receptor alpha-1 (Rattus norvegicus) (UniProt P15823+P23944+P43140); assay: Inhibition of rat alpha1 adrenoceptor at 1 uM relative to control
Rattus norvegicus [13] = species: Rattus norvegicus; assay: Inhibition of rat glycine receptor at 1 uM relative to control
monoamine oxidase A = monoamine oxidase A (Homo sapiens, UniProt P21397); assay: Inhibition of human monoamine oxidase A at 1 uM relative to control
monoamine oxidase A, sequence (P21397 whole entry): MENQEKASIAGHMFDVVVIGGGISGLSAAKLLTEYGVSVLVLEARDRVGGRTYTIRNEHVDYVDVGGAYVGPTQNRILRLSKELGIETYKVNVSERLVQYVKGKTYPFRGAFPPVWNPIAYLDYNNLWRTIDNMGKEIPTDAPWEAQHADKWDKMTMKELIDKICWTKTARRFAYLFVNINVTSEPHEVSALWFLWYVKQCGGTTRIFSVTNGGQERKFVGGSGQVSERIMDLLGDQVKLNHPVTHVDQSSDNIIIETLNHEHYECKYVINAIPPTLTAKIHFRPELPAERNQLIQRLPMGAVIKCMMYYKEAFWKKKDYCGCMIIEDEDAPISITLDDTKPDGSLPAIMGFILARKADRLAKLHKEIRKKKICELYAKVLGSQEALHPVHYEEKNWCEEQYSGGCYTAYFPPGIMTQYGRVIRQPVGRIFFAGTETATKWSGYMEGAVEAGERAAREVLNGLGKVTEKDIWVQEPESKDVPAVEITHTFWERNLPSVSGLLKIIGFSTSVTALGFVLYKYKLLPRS

Rattus norvegicus [14] = species: Rattus norvegicus; assay: Inhibition of rat sodium channel site 2 at 1 uM relative to control
[15] = target: 5-hydroxytryptamine receptor 2A (Homo sapiens) (UniProt P28223); assay: Inhibition of human 5-HT2A receptor at 1 uM relative to control
5-hydroxytryptamine receptor 2A (Homo sapiens), sequence (P28223 whole entry): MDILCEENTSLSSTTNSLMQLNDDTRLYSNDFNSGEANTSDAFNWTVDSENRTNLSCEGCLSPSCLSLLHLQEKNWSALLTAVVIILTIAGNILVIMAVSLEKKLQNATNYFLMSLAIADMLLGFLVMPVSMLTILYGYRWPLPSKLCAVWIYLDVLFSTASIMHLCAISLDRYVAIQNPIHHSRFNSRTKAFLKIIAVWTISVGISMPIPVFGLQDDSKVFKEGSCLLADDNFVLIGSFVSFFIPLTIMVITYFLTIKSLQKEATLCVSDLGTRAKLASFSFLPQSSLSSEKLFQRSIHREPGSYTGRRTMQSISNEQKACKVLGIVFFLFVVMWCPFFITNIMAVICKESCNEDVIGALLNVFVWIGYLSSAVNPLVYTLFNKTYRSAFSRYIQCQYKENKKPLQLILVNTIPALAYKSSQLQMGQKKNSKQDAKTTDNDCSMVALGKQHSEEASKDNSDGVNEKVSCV

Rattus norvegicus [16] = assay: Antiallodynic activity against von Frey hair mechanically stimulated neuropathic pain in intrathecally dosed Sprague-Dawley rat assessed as assessed as minimum effective dose to increase of response threshold per site after 20 mins; type: functional
Rattus norvegicus [17] = assay: Antiallodynic activity against von Frey hair mechanically stimulated neuropathic pain in Sprague-Dawley rat assessed as increase of response threshold per site at 170 nmol/site administered intrathecally after 20 mins relative to control; type: functional
Nociceptin receptor [18] = target: T1, Nociceptin receptor (Homo sapiens, UniProt P41146); assay: biochemical
T1 sequence (P41146 whole entry): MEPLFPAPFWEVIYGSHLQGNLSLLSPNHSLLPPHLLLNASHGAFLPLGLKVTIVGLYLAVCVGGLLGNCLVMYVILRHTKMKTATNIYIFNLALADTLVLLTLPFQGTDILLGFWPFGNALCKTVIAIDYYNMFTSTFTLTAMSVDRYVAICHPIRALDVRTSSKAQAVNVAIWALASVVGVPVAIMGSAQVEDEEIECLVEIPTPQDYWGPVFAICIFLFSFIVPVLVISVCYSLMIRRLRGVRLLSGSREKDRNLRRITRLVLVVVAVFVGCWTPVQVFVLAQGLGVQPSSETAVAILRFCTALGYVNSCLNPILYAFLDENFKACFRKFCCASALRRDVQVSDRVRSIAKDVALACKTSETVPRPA

Rattus norvegicus [19] = species: Rattus norvegicus; assay: Inhibition of rat chloride channel at 1 uM relative to control
Rattus norvegicus [20] = assay: Antiallodynic activity against von Frey hair mechanically stimulated neuropathic pain in Sprague-Dawley rat assessed as effect on allodynia in contralateral paw at 5.5 to 170 nmol/site, icv after 1 hr; type: functional, organism-based
Homo sapiens = species: Homo sapiens; assay: Inhibition of human muscle-type nicotinic acetylcholine receptor at 1 uM relative to control
Rattus norvegicus [21] = species: Rattus norvegicus; assay: Inhibition of rat 5-HT receptor at 1 uM relative to control
Rattus norvegicus [22] = species: Rattus norvegicus; assay: Stimulation of rat adenylate cyclase at 1 uM relative to basal activity
Rattus norvegicus [23] = assay: Antiallodynic activity against von Frey hair mechanically stimulated neuropathic pain in Sprague-Dawley rat assessed as effect on allodynia in contralateral paw at 1 to 30 mg/kg, sc after 4 hrs; type: functional, organism-based
Rattus norvegicus [24] = assay: Antiallodynic activity against von Frey hair mechanically stimulated neuropathic pain in Sprague-Dawley rat assessed as effect on allodynia in contralateral paw at 5.5 to 170 nmol/site, icv after 20 mins; type: functional, organism-based
[25] = target: Glutamate NMDA receptor (Rattus norvegicus) (UniProt P35439+Q00959+Q00960+Q00961+Q62645+Q8VHN2+Q9R1M7); assay: Inhibition of rat NMDA receptor at 1 uM relative to control; type: protein-complex assay
Rattus norvegicus [26] = assay: Toxicity in von Frey hair mechanically stimulated neuropathic pain Sprague-Dawley rat model assessed as respiratory depression at up to 170 nmol/site, administered intrathecally; type: organism-based; settings: in vivo, icv_or_intrathecal
Rattus norvegicus [27] = assay: Antiallodynic activity against von Frey hair mechanically stimulated neuropathic pain in Sprague-Dawley rat assessed as increase of response threshold per site at 5.5 to 170 nmol/site, icv after 1 hr; type: functional, organism-based
Rattus norvegicus [28] = species: Rattus norvegicus; assay: Inhibition of rat N-type calcium channel at 1 uM relative to control
Rattus norvegicus [29] = assay: Antiallodynic activity against von Frey hair mechanically stimulated neuropathic pain in intrathecally dosed Sprague-Dawley rat assessed as increase of response threshold per site after 1 hr; type: functional
[30] = target: Adenosine receptor A2a (Homo sapiens) (UniProt P29274); assay: Inhibition of human adenosine A2A receptor at 1 uM relative to control
Adenosine receptor A2a (Homo sapiens), sequence (P29274 whole entry): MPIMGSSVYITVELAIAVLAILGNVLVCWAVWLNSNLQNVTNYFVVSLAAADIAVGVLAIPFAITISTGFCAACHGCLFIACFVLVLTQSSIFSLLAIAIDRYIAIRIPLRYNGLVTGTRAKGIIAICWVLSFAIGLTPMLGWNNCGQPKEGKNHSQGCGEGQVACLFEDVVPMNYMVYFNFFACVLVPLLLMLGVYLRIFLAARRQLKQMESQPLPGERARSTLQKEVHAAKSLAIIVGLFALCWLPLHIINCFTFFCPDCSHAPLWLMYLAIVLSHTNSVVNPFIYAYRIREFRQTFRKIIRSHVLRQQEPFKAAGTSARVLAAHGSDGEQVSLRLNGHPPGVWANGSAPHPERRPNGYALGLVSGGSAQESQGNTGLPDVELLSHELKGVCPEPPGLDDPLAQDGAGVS

Rattus norvegicus [31] = species: Rattus norvegicus; assay: Inhibition of rat K+V channel at 1 uM relative to control
Rattus norvegicus [32] = assay: Antiallodynic activity against von Frey hair mechanically stimulated neuropathic pain in Sprague-Dawley rat assessed as increase of response threshold at 30 mg/kg, sc after 2 hrs relative to control; type: functional; settings: route subcutaneous
Rattus norvegicus [33] = assay: Antiallodynic activity against von Frey hair mechanically stimulated neuropathic pain in intrathecally dosed Sprague-Dawley rat assessed as assessed as minimum effective dose to increase of response threshold per site after 1 hr; type: functional
[34] = Drug level Sprague-Dawley rat plasma at 10 mg/kg, sc after […]; type: ADME, organism-based; design: dose 10 mg/kg, route subcutaneous; settings: read-out: Drug uptake
Nociceptin receptor [35] = target: T1, Nociceptin receptor
[36] = Drug level Sprague-Dawley rat spinal cord at 10 mg/kg, sc after […]; type: ADME, organism-based; design: dose 10 mg/kg, route subcutaneous; settings: read-out: Drug uptake
Rattus norvegicus [37] = assay: Antiallodynic activity against von Frey hair mechanically stimulated neuropathic pain in Sprague-Dawley rat assessed as increase of response threshold per site at 170 nmol/site administered intrathecally after 1 hr relative to control; type: functional
Rattus norvegicus [38] = assay: Antiallodynic activity against von Frey hair mechanically stimulated neuropathic pain in icv dosed Sprague-Dawley rat assessed as assessed as minimum effective dose to increase of response threshold per site after 20 mins; type: functional
[39] = target: Muscarinic acetylcholine receptor M2 (Homo sapiens) (UniProt P08172); assay: Inhibition of human muscarinic M2 receptor at 1 uM relative to control
Muscarinic acetylcholine receptor M2 (Homo sapiens), sequence (P08172 whole entry): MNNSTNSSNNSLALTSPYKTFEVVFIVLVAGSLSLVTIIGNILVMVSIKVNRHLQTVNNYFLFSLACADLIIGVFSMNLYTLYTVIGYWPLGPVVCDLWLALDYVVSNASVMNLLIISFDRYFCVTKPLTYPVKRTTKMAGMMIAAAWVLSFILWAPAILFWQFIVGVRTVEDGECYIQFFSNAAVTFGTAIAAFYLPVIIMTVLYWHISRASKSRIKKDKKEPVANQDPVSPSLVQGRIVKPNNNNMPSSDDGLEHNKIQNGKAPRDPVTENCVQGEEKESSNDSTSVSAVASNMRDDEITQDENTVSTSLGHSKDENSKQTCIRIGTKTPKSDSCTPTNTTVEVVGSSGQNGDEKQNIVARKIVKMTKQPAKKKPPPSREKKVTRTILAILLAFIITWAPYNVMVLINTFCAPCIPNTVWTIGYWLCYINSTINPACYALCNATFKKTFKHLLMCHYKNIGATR

Rattus norvegicus [40] = species: Rattus norvegicus; assay: Inhibition of rat choline transporter at 1 uM relative to control
[41] = target: Sodium-dependent noradrenaline transporter (Homo sapiens) (UniProt P23975); assay: Inhibition of human norepinephrine transporter at 1 uM relative to control
[42] = target: L-type calcium channel, verapamil site (Rattus norvegicus, UniProt P22002+P27732+Q02485); assay: Inhibition of rat L-type calcium channel verapamil site at 1 uM relative to control
[43] = target: Estrogen receptor (Homo sapiens) (UniProt P03372); assay: Inhibition of human estrogen receptor beta at 1 uM relative to control
Estrogen receptor (Homo sapiens), sequence (P03372 whole entry): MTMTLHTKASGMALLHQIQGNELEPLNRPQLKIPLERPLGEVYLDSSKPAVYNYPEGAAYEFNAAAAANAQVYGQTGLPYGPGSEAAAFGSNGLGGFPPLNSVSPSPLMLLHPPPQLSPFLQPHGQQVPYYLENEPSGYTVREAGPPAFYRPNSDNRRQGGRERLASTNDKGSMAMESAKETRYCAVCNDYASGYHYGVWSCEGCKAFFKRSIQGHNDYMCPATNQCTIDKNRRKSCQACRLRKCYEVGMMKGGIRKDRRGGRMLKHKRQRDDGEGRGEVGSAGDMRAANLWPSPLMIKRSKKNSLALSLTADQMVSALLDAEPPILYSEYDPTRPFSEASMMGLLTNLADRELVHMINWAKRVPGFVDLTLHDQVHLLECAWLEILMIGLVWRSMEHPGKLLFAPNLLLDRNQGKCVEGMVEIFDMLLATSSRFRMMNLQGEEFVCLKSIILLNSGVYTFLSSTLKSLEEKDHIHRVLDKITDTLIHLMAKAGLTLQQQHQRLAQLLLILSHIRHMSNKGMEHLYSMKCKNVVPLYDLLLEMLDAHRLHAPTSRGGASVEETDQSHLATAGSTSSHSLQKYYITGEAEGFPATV

Tyrosine 3-monooxygenase (Rattus norvegicus), sequence (P04177 whole entry): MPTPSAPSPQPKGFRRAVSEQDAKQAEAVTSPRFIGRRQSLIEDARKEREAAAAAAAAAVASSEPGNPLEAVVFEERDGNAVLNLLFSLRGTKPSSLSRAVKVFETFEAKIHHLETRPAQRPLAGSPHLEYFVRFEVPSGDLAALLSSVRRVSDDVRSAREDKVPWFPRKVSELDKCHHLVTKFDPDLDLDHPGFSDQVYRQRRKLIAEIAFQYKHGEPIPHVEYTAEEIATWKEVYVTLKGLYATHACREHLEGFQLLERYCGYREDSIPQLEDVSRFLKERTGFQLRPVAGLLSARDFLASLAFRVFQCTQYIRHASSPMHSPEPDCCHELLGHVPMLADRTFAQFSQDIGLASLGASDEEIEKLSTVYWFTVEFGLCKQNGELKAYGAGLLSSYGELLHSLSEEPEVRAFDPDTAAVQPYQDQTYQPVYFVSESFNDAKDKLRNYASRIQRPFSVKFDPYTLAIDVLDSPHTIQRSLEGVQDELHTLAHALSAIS

In the case of `OCC1(N2CCC(n3c(N4CC5CNCC5C4)nc4ccccc43)CC2)CCCCCCC1` (configuration not stated), the inhibition [1] is reported as less than 10%, the Activity (Rattus norvegicus [2]) is reported as “Dose-dependent effect” and the ED50 (Rattus norvegicus [2]) is reported as 80 nmol. It also gave a concentration at 0.5 h [3] of 152 ng/mL, an ED50 (Rattus norvegicus [4]) of 170 nmol and an inhibition [5] of 53%. For the same molecule, the inhibition [6] was less than 10%, the Activity (Rattus norvegicus [7]) was “Non-toxic” and the inhibition [8] was less than 10%. For the same molecule, the inhibition [9] was less than 10%, the Activity (Rattus norvegicus [10]) was “tde” and the inhibition (Rattus norvegicus [11]) was less than 10%. The inhibition [12] was 16%, the inhibition (Rattus norvegicus [13]) was less than 10% and the inhibition at 1 µM (monoamine oxidase A) was 12%. It also gave an inhibition (Rattus norvegicus [14]) of less than 10%, an inhibition [15] of less than 10% and an MED (Rattus norvegicus [16]) of 55 nmol. The Activity (Rattus norvegicus [17]) was 59.3%, the Ki (Nociceptin receptor [18]) was 1.44 nM and the inhibition (Rattus norvegicus [19]) was less than 10%. For the same molecule, the Activity (Rattus norvegicus [20]) was “inactive”, the inhibition (Homo sapiens) was 21% and the inhibition (Rattus norvegicus [21]) was less than 10%. The inhibition (Rattus norvegicus [22]) was less than 10%, the Activity (Rattus norvegicus [23]) was “inactive” and the Activity (Rattus norvegicus [24]) was “inactive”. For the same molecule, the inhibition [25] was less than 10%, the Activity (Rattus norvegicus [26]) was “Non-toxic” and the ED50 (Rattus norvegicus [27]) was “inactive”. The inhibition (Rattus norvegicus [28]) was less than 10%, the Activity (Rattus norvegicus [29]) was “Dose-dependent effect” and the ED50 (Rattus norvegicus [29]) was greater than 170 nmol. It also gave an inhibition [30] of less than 10%, an inhibition (Rattus norvegicus [31]) of less than 10% and an Activity (Rattus norvegicus [32]) of 35.8%. The MED (Rattus norvegicus [33]) was 55 nmol, the concentration at […] [34] was 504 ng/mL and the EC50 (Nociceptin receptor [35]) was 12 nM. It also gave a concentration at […] [36] of 63 ng/mL, an Activity (Rattus norvegicus [37]) of 45.5% and an MED (Rattus norvegicus [38]) of 55 nmol. For the same molecule, the inhibition [39] was 19%, the inhibition (Rattus norvegicus [40]) was 11% and the inhibition [41] was less than 10%. For the same molecule, the inhibition at 1 µM [42] was less than 10% and the inhibition [43] was less than 10%.

— ChEMBL document CHEMBL1649335, “Discovery of {1-[4-(2-{hexahydropyrrolo[3,4-c]pyrrol-2(1H)-yl}-1H-benzimidazol-1-yl)piperidin-1-yl]cyclooctyl}methanol, systemically potent novel non-peptide agonist of nociceptin/orphanin FQ receptor as analgesic for the treatment of neuropathic pain: design, synthesis, and structure-activity …” (Bioorg Med Chem, 2010)
